Where two headings read alike, the source gives them in different places.
Columns and labels:
[1] = Model For Reducing Effect of Nicotine (nicotine discrimination); format: in vivo, rat; details: rats; dose 3.0 mg/kg; nicotine only control 50%
Description: Model For Reducing Effect of Nicotine. Food-deprived rats were trained to press one lever for a food pellet after nicotine administration and a second lever after vehicle administration. Pellets of food were delivered intermittently, so that every twentieth response produced food. Using this procedure, the only cue for the rat regarding which lever occasionally pays off with a food pellet, is the subjective effect of the nicotine. When the rats were accurately and reliably identifying the nicotine injections (approximately all of its responses on the lever that occasionally pays off after nicotine or saline), testing began. The rats were pretreated with a compound of Formula III before nicotine injection, and the experiment progressed as described above, except responses on either lever intermittently produced food. A 50% effective nicotine dose was reduced to low levels of effectiveness upon administration of a compound of Formula III.

NET [2] = format: binding, rat; details: ratio of respective Ki values; greater than 1 = DAT selective
DAT [3] = target: T1, DAT (Rattus norvegicus, UniProt P23977); details: read-out: DAT [3H]WIN 35,428 Ki ± SEM; comparative data taken from Agoston et al. 1997; cited from earlier work
T1 construct: their brains removed to an ice-cooled dish for dissection of the caudate putamen; from tissue; host or cells: rat caudate putamen homogenate

muscarinic M1 receptor [4] = target: T2, muscarinic M1 receptor (Rattus norvegicus, UniProt P08482); assay: [3H]Pirenzepine Binding Assay, rat brain membranes; details: for Binding selectivity DAT/M1: ratio of respective Ki values, greater than 1 = DAT selective
T2 construct: Membranes from frozen rat brains excluding cerebellum were thawed; from tissue; host or cells: rat brain (excluding cerebellum) membranes
T2 sequence (P08482 1-460): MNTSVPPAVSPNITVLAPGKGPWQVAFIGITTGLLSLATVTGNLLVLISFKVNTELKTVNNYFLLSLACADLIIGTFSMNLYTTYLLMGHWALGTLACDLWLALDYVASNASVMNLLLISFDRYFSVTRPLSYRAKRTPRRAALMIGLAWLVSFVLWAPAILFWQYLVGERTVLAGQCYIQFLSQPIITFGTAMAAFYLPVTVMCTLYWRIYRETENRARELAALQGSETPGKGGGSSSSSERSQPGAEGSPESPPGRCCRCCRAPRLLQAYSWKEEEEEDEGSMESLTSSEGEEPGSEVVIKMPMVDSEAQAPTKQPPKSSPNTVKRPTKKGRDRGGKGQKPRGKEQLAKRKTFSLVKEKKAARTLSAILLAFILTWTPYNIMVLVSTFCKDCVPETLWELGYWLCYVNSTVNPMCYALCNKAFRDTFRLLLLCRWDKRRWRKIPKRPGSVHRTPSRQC

SERT [5] = target: T3, SERT (Rattus norvegicus, UniProt P31652); assay: [3H]Citalopram Binding Assay, rat midbrain membranes; details: for Binding selectivity DAT/SERT: ratio of respective Ki values, greater than 1 = DAT selective; for Ki: rat brain membranes, read-out: SERT [3H]citalopram Ki ± SEM
T3 construct: Membranes from frozen rat midbrain were homogenized; from tissue; host or cells: rat midbrain membranes

NET [6] = target: NET (Rattus norvegicus, UniProt Q63380); details: read-out: NET [3H]nisoxetine Ki ± SEM; comparative data taken from Agoston et al. 1997; cited from earlier work
muscarinic M1 receptor [7] = target: T2, muscarinic M1 receptor; details: comparative data taken from Agoston et al. 1997; read-out: M1 [3H]pirenzepine Ki ± SEM; cited from earlier work
SERT [8] = target: T3, SERT; details: comparative data taken from Agoston et al. 1997; read-out: SERT [3H]citalopram Ki ± SEM; cited from earlier work
DAT [9] = target: T1, DAT; assay: biochemical; format: binding
[10] = target: T4, dopaminergic transporter sites (Mus musculus, UniProt Q61327); assay: In vivo binding of [125I]RTI-121 (displacement in striatum); details: mice
T4 construct: Whole brains were rapidly removed and striatum and cerebellum were dissected on ice; from tissue; host or cells: mouse striatum, in vivo occupancy
Description: In vivo binding of [^125I]RTI-121. Each animal received an i.v. injection of 2 μCi of [^125I]RTI-121. Two hours after administration of [^125I]RTI-121, the animals were sacrificed by cervical dislocation. In each mouse, displacement of [^125I]RTI-121 was examined by giving an i.p. injection of one of the displacers at various doses and times relative to sacrifice, Displacement by test drugs at various doses was examined at various times after their injection, with each data point determined in sets of approximately six mice. Whole brains were rapidly removed and striatum and cerebellum were dissected on ice.
Regional radioactivity levels were divided by weight (gram) of the tissue (CPM/tissue weight). Specific binding was calculated as CPM/tissue weight in striatum divided by cerebellum minus 1 (S/C−1), which is based on the observation that dopaminergic transporter sites are highly concentrated in the striatum and relatively absent in the cerebellum. These values were expressed as a percentage of specific binding after vehicle injection. Data were analyzed using two-way analysis of variance (ANOVA), and a post-hoc Tukey's test was used to determine significance of effects for individual doses at different time periods following IP injection of compound 1a (FIG. 3A), 1b (FIG. 3B), MFZ 2-74 (R^1=Me; R^2,3=F; R^4=CO2-^iPr) (FIG. 3C), 15 (FIG. 3D), and 14 (FIG. 3E). […]

[11] = rat brain membranes, read-out: M1 [3H]pirenzepine Ki ± SEM
[12] = read-out: DAT [3H]WIN 35,428 Ki ± SEM

T1 sequence (P23977 whole entry): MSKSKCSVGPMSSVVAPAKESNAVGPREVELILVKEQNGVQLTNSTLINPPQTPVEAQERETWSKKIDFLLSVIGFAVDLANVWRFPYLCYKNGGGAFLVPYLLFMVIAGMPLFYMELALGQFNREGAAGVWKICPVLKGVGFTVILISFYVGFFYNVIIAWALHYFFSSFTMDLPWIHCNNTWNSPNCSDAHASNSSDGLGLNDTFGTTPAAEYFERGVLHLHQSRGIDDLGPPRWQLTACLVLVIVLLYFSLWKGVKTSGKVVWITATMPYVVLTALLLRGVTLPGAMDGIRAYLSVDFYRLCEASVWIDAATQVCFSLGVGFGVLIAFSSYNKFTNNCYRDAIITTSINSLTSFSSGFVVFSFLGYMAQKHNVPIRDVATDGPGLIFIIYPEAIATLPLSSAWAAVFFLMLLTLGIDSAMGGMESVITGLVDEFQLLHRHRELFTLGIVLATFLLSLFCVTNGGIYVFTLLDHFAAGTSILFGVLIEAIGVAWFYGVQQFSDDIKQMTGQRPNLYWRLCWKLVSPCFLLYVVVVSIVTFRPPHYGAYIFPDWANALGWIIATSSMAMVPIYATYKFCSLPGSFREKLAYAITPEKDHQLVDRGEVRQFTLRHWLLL
T3 sequence (P31652 whole entry): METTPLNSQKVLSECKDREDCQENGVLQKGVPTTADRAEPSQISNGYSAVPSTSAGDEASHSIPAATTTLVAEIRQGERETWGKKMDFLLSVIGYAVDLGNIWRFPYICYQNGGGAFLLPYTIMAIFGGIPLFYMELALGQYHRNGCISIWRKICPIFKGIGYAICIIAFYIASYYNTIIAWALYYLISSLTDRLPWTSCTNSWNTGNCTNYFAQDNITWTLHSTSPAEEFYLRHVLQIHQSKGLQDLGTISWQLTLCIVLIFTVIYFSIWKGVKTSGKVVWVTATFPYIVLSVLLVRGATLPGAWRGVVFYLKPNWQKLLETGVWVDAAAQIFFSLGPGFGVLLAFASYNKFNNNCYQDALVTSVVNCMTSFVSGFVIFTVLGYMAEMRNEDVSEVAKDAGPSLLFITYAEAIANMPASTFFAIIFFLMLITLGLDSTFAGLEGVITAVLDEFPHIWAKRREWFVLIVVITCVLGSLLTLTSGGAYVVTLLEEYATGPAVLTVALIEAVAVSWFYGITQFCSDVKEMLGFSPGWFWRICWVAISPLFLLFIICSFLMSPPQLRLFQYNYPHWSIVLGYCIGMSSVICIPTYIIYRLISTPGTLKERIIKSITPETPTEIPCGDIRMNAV
T4 sequence (Q61327 whole entry): as the sequence (P23977 whole entry) above, with S21P, A57V, A194S, H600R, L619V counted along it
NET (Rattus norvegicus, UniProt Q63380), sequence (Q63380 1-617): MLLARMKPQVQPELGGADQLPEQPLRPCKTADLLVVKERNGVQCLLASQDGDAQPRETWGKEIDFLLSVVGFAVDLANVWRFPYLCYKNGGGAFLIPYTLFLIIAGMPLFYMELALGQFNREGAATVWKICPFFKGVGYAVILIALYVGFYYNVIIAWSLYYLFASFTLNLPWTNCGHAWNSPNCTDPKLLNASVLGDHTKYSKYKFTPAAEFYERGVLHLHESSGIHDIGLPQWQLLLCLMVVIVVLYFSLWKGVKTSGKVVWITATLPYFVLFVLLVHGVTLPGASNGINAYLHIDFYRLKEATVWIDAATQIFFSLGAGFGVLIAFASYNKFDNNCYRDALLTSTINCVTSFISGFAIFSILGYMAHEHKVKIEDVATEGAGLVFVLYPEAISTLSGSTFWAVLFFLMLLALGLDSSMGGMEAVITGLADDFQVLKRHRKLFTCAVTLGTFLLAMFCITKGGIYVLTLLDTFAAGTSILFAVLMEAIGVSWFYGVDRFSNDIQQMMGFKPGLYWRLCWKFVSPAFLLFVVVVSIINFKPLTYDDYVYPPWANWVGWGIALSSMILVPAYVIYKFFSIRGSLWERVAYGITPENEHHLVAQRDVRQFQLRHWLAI

| Structure (SMILES) | Binding selectivity DAT/NET (NET [2]) | Binding selectivity DAT/M1 (muscarinic M1 receptor [4]) | Binding selectivity DAT/SERT (SERT [5]) | Ki (muscarinic M1 receptor [4]; [11]) [nM] | Ki (SERT [5]) [nM] | Ki (DAT [9]; [12]) [nM] | other results |
| --- | --- | --- | --- | --- | --- | --- | --- |
| C=CCN1[C@@H]2CC[C@H]1C[C@@H](OC(c1ccc(F)cc1)c1ccc(F)cc1)C2 [Compound 13] | 178 | 20 | 324 | – | – | – | Effect (of a 50% effective nicotine dose after pretreatment) [1]: 22.4%; Ki (DAT [3]): 8.79 ± 0.52 nM; Ki (NET [6]): 1570 ± 242 nM; Ki (muscarinic M1 receptor [7]): 177 ± 21.1 nM; Ki (SERT [8]): 2850 ± 62.5 nM |
| CCOC(=O)[C@@H]1C2CCC(C[C@@H]1OC(c1ccc(F)cc1)c1ccc(F)cc1)N2 (stereo partly drawn) [Compound 9, S-(+)-N-nor-2β-Carboethoxy-3α-[bis(4-fluorophenyl)methoxy]tropane] | 63 | – | 242 | 17100 ± 2480 | 2150 ± 222 | 8.87 ± 1.02 | – |
| CN1[C@@H]2CC[C@H]1[C@H](COC(=O)CCCc1ccc([N+](=O)[O-])cc1)[C@@H](OC(c1ccc(F)cc1)c1ccc(F)cc1)C2 [Compound 7, S-(+)-2β-{[4-(4′-Nitrophenyl)butyryl]oxymethyl}-3α-[bis(4-fluorophenyl)methoxy]tropane] | – | – | – | – | 3780 ± 390 | – | Ki (muscarinic M1 receptor [4]): 708 ± 102 nM |
| CCOC(=O)C1C(OC(c2ccc(Cl)cc2)c2ccc(Cl)cc2)CC2CCC1N2C (racemic) [(±)-15] | – | – | – | – | – | – | Ki (DAT [9]; read-out: DAT binding Ki): 22 ± 0.84 nM |
| CCCCN1C2CCC1[C@@H](C(=O)OCC)[C@@H](OC(c1ccc(F)cc1)c1ccc(F)cc1)C2 (stereo partly drawn) [Compound 10, S-(+)-N-Butyl-2β-carboethoxy-3α-[bis(4-fluorophenyl)methoxy]tropane] | 71 | 391 | 305 | 3200 ± 298 | 2500 ± 327 | 8.18 ± 0.17 | – |
| COC(=O)/C=C/[C@@H]1C2CCC(C[C@@H]1OC(c1ccc(F)cc1)c1ccc(F)cc1)N2C (stereo partly drawn) [Compound 5, S-(+)-2β-(2′-(methoxycarbonyl)eth-1′-enyl)-3α-[bis(4-fluorophenyl)methoxy]tropane] | 54 | 278 | 115 | 1380 ± 81 | 572 ± 51 | 4.69 ± 0.6 | Ki (DAT [9]): 4.96 nM |
| COC(=O)CC[C@@H]1C2CCC(C[C@@H]1OC(c1ccc(F)cc1)c1ccc(F)cc1)N2C (stereo partly drawn) [Compound 6, S-(+)-2β-(2′-(Methoxycarbonyl)ethyl)-3α-[bis(4-fluorophenyl)methoxy]tropane] | 121 | 831 | 286 | 3110 ± 435 | 1070 ± 118 | 3.74 | – |
| CC(C)OC(=O)C1C(OC(c2ccc(F)cc2)c2ccc(F)cc2)CC2CCC1N2C (stereo not shown) [MFZ 2-74] | – | – | – | – | – | – | Time of maximal displacement of [125I]RTI-121 after injection ([10]; IP injection of displacer, striatum vs cerebellum, FIG. 3): not obtained; Time at which maximal displacement of [125I]RTI-121 would likely be obtained ([10]; IP injection, FIG. 3C, maximal displacement not obtained in the test): > 3 h |
